Assay results from the CheMixHub viscosity set.

Assay: xn = mol fraction of the nth substance listed

CCOCCO + CCCCCCC
viscosity [mPa·s], 101.33 kPa
Conditions	x1 = 0.1091	x1 = 0.1973	x1 = 0.299	x1 = 0.4	x1 = 0.5014	x1 = 0.6074	x1 = 0.6986	x1 = 0.799	x1 = 0.8989
298.15 K	0.422	0.455	0.51	0.585	0.671	–	0.922	1.12	1.39
303.15 K	0.398	0.428	0.478	0.541	0.619	0.673	0.843	1.013	1.247
308.15 K	0.377	0.404	0.449	0.506	0.574	0.63	0.772	0.927	1.133
313.15 K	0.355	0.382	0.422	0.472	0.535	0.592	0.713	0.844	1.026

CCOCCO + CCCCCCCC
viscosity [mPa·s], 101.33 kPa
Conditions	x1 = 0.0976	x1 = 0.1994	x1 = 0.3003	x1 = 0.4001	x1 = 0.5004	x1 = 0.5944	x1 = 0.6962	x1 = 0.7983	x1 = 0.8969
298.15 K	0.524	0.566	0.619	0.687	0.772	0.87	1.003	1.179	1.421
303.15 K	0.49	0.527	0.574	0.632	0.71	0.795	0.911	1.069	1.279
308.15 K	0.463	0.494	0.538	0.591	0.657	0.732	0.834	0.972	1.155
313.15 K	0.434	0.462	0.5	0.55	0.609	0.673	0.763	0.896	1.05

CCOCCO + CCCCCCCCC
viscosity [mPa·s], 101.33 kPa
Conditions	x1 = 0.098	x1 = 0.2031	x1 = 0.3023	x1 = 0.4074	x1 = 0.505	x1 = 0.601	x1 = 0.7022	x1 = 0.8034	x1 = 0.9003
298.15 K	0.662	0.696	0.746	0.822	0.9	1.024	1.107	1.263	1.469
303.15 K	0.62	0.646	0.69	0.753	0.821	0.929	1.005	1.137	1.316
308.15 K	0.577	0.601	0.64	0.697	0.757	0.853	0.916	1.034	1.191
313.15 K	0.537	0.558	0.596	0.642	0.698	0.778	0.837	0.939	1.075

CCOCCO + CCCCCCCCCC
viscosity [mPa·s], 101.33 kPa
Conditions	x1 = 0.0958	x1 = 0.2018	x1 = 0.2985	x1 = 0.4011	x1 = 0.4984	x1 = 0.5978	x1 = 0.6989	x1 = 0.7994	x1 = 0.8984
298.15 K	0.828	0.851	0.905	0.962	1.046	1.128	1.223	1.345	1.512
303.15 K	0.767	0.785	0.827	0.879	0.946	1.016	1.108	1.209	1.354
308.15 K	0.709	0.725	0.766	0.806	0.866	0.929	1.001	1.096	1.223
313.15 K	0.661	0.681	0.705	0.744	0.797	0.844	0.921	0.992	1.103

CC12CCC(CC1=O)C2(C)C (configuration not stated) + CCCCCCCCCC(=O)O
101.33 kPa, x2 = 0.7
Conditions	viscosity [mPa·s]
298.15 K	10.76
303.15 K	9.184
308.05 K	7.889
313.05 K	6.866
318.15 K	6.143
323.05 K	5.9

CCOCCO + CCCCCCCCCCCC
viscosity [mPa·s], 101.33 kPa
Conditions	x1 = 0.1001	x1 = 0.1987	x1 = 0.3009	x1 = 0.3972	x1 = 0.5014	x1 = 0.5996	x1 = 0.6933	x1 = 0.7988	x1 = 0.8984
298.15 K	1.288	1.294	1.321	1.339	1.379	1.412	1.453	1.529	1.636
303.15 K	1.171	1.174	1.195	1.223	1.256	1.284	1.317	1.387	1.465
308.15 K	1.075	1.076	1.09	1.115	1.138	1.166	1.191	1.254	1.316
313.15 K	0.986	0.987	0.997	1.02	1.045	1.063	1.082	1.139	1.191

CC12CCC(CC1=O)C2(C)C (configuration not stated) + CCCCCCCCCCO
101.33 kPa, x2 = 0.7
Conditions	viscosity [mPa·s]
298.15 K	12.14
303.15 K	10.24
308.05 K	8.898
313.15 K	7.817
318.05 K	6.806
323.05 K	5.915

CCOCCO + CCCCCCCCO
298.15 K, 101 kPa
Conditions	viscosity [mPa·s]
x1 = 0.1384	6.062
x1 = 0.2654	5.061
x1 = 0.3825	4.268
x1 = 0.4907	3.649
x1 = 0.591	3.172
x1 = 0.6843	2.805
x1 = 0.7713	2.504
x1 = 0.8525	2.266
x1 = 0.9286	2.078

CC(CC(C)(C)C)CP(=O)(O)CC(C)CC(C)(C)C (configuration not stated) + CCCCCCCO
298.15 K, 101 kPa
Conditions	viscosity [mPa·s]
x1 = 0.0091	6.029
x1 = 0.0166	6.297
x1 = 0.0189	6.395
x2 = 0.0832	103
x2 = 0.1509	92.76
x2 = 0.2814	72.97
x2 = 0.4338	51.94
x2 = 0.5979	33.45
x2 = 0.6948	24.29
x2 = 0.7164	22.65
x2 = 0.819	14.88
x2 = 0.83	13.87
x2 = 0.8984	10.18
x2 = 0.9056	9.875
x2 = 0.9596	7.316

CCOCCO + CCCCCCCO
298.15 K, 101 kPa
Conditions	viscosity [mPa·s]
x1 = 0.1253	4.967
x1 = 0.2438	4.207
x1 = 0.3559	3.655
x1 = 0.4623	3.23
x1 = 0.5632	2.902
x1 = 0.6592	2.617
x1 = 0.7505	2.383
x1 = 0.8376	2.2
x1 = 0.9207	2.041

CCOCCO + CCCCCO
298.15 K, 101 kPa
Conditions	viscosity [mPa·s]
x1 = 0.098	3.167
x1 = 0.1965	2.864
x1 = 0.2954	2.619
x1 = 0.3947	2.431
x1 = 0.4945	2.283
x1 = 0.5947	2.178
x1 = 0.6953	2.099
x1 = 0.7964	2.027
x1 = 0.898	1.954

COCc1ccccc1 + CCCCCOC(C)=O
Conditions	viscosity [mPa·s]
298.15 K, 101 kPa, x2 = 0.5	0.8479

Oc1ccc(Cl)cc1 + CCCCCOC(C)=O
Conditions	viscosity [mPa·s]
298.15 K, 101 kPa, x1 = 0.5	1.27

CNC(C)=O + CCCCN
308.15 K, 101 kPa
Conditions	viscosity [mPa·s]
x1 = 0.0335	0.414
x1 = 0.1849	0.5985
x1 = 0.3822	0.9135
x1 = 0.4385	1.049
x1 = 0.5671	1.387
x1 = 0.6888	1.829
x1 = 0.7756	2.15
x1 = 0.8792	2.675
x1 = 0.9781	3.172

Oc1ccc(Cl)cc1 + CCCCN(CCCC)CCCC
298.16 K, 101 kPa
Conditions	viscosity [mPa·s]
x1 = 0.5057	14.04
x1 = 0.5498	23.8
x1 = 0.6004	46.15
x1 = 0.6534	94.2
x1 = 0.7034	222.8
x1 = 0.714	261.7
x1 = 0.7471	389.7
x1 = 0.7798	438.6
x1 = 0.8047	424.7
x1 = 0.8194	339.1
x1 = 0.8508	228.2
x1 = 0.8615	173.1
x1 = 0.88	141.3
x1 = 0.9041	99.6
x1 = 0.915	73.06
x1 = 0.9457	46.28
x1 = 0.9798	26.23
x2 = 0.002811	19.56

Oc1ccc(Cl)cc1 + CCCCNCCCC
298.16 K, 101 kPa
Conditions	viscosity [mPa·s]
x1 = 0.4053	3.541
x1 = 0.5045	11.99
x1 = 0.5585	31.68
x1 = 0.6051	56.94
x1 = 0.6526	126.7
x1 = 0.6871	181.4
x1 = 0.7235	251.1
x1 = 0.7533	273.6
x1 = 0.7813	263
x1 = 0.8104	221
x1 = 0.84	163.2
x1 = 0.8686	111.1
x1 = 0.8961	79.37
x1 = 0.9256	53.62
x1 = 0.9749	26.85

Cc1ccc([S@@](=O)O[C@@H]2C[C@H](C)CC[C@H]2C(C)C)cc1 + CCCCO
298 K, 101.3 kPa
Conditions	viscosity [mPa·s]
x1 = 0.00223	2.53
x1 = 0.0043	2.548
x1 = 0.00647	2.573
x1 = 0.0087	2.586
x1 = 0.01163	2.628
